Assays:
[1] = tested on: phospho-PRAS40 (T246), phospho-GSK3I3 (S9), phospho-S6 (S240/244); assay: Immunoblot of downstream signaling (pPRAS40, pGSK3, pS6) in T47D and MDA-MB-468 cells; assay type: cell-based, human
Procedure: Solid vertical white line indicates samples run on separate gels. […] Solid vertical white line indicates samples run on separate gels. Cells were plated at 250,000 cells per mL (MDA-MB-468, MOLT4, IGROV1, PC3, and Jurkat) or 200,000 cells per mL (T47D) in 2 mL per well of RPMI or DMEM media with 10% serum in 6-well treated tissue culture plates (Greiner, Cat #TCG-657160) or 60 mm treated tissue culture plates (Corning®, Cat #430166) and incubated overnight. The next day, cells were treated with the indicated compounds at the appropriate concentration and protein lysates were harvested at the times specified. Cells were washed once in 1×PBS then lysed in RIPA buffer (150 mM Tris-HCl, 150 mM NaCl, 0.5% (w/v) sodium deoxycholate, 1% (v/v) NP-40, pH 7.5) containing 0.1% (w/v) sodium dodecyl sulfate, 1 mM sodium pyrophosphate, 20 mM sodium fluoride, 50 nM calyculin, and 0.5% (v/v) protease inhibitor cocktail (Sigma-Aldrich®) for 15 minutes. Cell extracts were precleared by centrifugation at 14,000 rpm for 10 minutes at 4° C. The Bio-Rad DC protein assay was used to assess protein concentration, and sample concentration was normalized using SDS sample buffer. Lysates were resolved on acrylamide gels by SDS-polyacrylamide gel electrophoresis and electrophoretically transferred to nitrocellulose membrane (BioRad) at 100 volts for 90 minutes. Membranes were blocked in 5% (w/v) nonfat dry milk in tris-buffered saline (TBS) buffer for 1 hour then incubated with specific primary antibodies diluted in 5% (w/v) nonfat dry milk in TBS-T (TBS with 0.05% Tween®-20) at 4° C. overnight, shaking. The next day, membranes were washed with TBS-T then incubated for 1 hour at room temperature with fluorophore-conjugated secondary antibodies (LI-COR® Biosciences). The membrane was washed again with TBS-T then imaged with a LI-COR® Odyssey® CLx Imaging System (LI-COR® Biosciences).

phosphorylated PRAS40 [2] = assay: Immunoblot of phosphorylated PRAS40 in MDA-MB-468 cells; assay type: cell-based, human; conditions: 24-hour treatment
Procedure: (§1) MDA-MB-468 (human breast cancer cell line) cells were maintained in RPMI 1640 (Wisent Bioproducts) supplemented with 10% FBS (Thermo Fisher Scientific) and MCF10A (human breast epithelial cell line) cells were maintained in Dulbecco's modified Eagle's medium (DMEM)/Ham's F12 (Wisent Bioproducts) supplemented with 5% equine serum (Fisher), insulin (10 μg/ml) (Life Technologies), hydrocortisone (500 ng/ml) (Sigma-Aldrich®), epidermal growth factor (20 ng/ml) (R&D Systems), and cholera toxin (100 ng/ml) (List Biological Lab). MDA-MB-468 and MCF10A cells were seeded at 250,000 cells/mL and 200,000 cells/mL, respectively. The following day cells were treated with inventive bifunctional compounds. After 24 hours, cells were washed with phosphate-buffered saline at 4° C. and lysed in radioimmunoprecipitation assay (RIPA) buffer (150 mM Tris-HCl, 150 mM NaCl, 0.5% (w/v) sodium deoxycholate, 1% (v/v) NP-40, pH 7.5) containing 0.1% (w/v) sodium dodecyl sulfate, 1 mM sodium pyrophosphate, 20 mM sodium fluoride, 50 nM calyculin, and 0.5% (v/v) protease inhibitor cocktail (Sigma-Aldrich®)). Cell extracts were precleared by centrifugation at 14,000 rpm for 10 minutes at 4° C. The Bio-Rad DC protein assay was used to assess protein concentration, and sample concentration was normalized using SDS sample buffer. […] Images were stored and analyzed using ImageStudioTM (LI-COR®) software.

phosphorylated PRAS40 [3] = assay: Immunoblot of phosphorylated PRAS40 in MCF10A cells; assay type: cell-based, human; conditions: 24-hour treatment
Procedure: as §1, with “software. […]” for “software.”

ZR-75-1 cells = assay: Growth inhibition rate (GR) assay in ZR-75-1 cells; assay type: cell-based; conditions: 72-hour treatment (FIG. 6A)
Source text: (§2) FIG. 6A-FIG. 6F are a set of graphs that show growth inhibition rate (GR) values across concentrations in ZR-75-1 (FIG. 6A), T47D (FIG. 6B), LNCaP (FIG. 6C), MCF-7 (FIG. 6D), MDA-MB-468 (FIG. 6E), and HCC1937 (FIG. 6F) cells after 72-hour treatment with GDC-0068 (blue), inventive bifunctional compound 10 (red), bifunctional compound 10-Me (negative control) (green), and lenalidomide (orange). Error bars represent the standard deviation of three technical replicates.

[4] = tested on: ZR-75-1, T47D, LNCaP, MCF-7 cells; assay: Growth inhibition rate (GR) assay in cell lines sensitive to AKT inhibition; assay type: cell-based; conditions: MCF-7, 72-hour treatment (FIG. 6A-6D)
Source text: as §2

[5] = T47D and MDA-MB-468 cells, 250 nM (FIG. 7C-7D)

CC(C)NC[C@@H](C(=O)N1CCN(c2ncnc3c2[C@H](C)C[C@H]3O)CC1)c1ccc(Cl)cc1 [GDC-0068]
Duration of reduction of pPRAS40 levels [1, 5]: shorter
Inhibition of pPRAS40 compared with compound 10 [1, 5]: less-pronounced inhibition of pPRAS40
Phosphorylation of PRAS40, GSK3I3 and S6 ([1]; T47D and MDA-MB-468 cells, 250 nM, 24 hours (FIG. 7A-7B)): weaker responses
pPRAS40 levels after compound washout ([1]; T47D or MDA-MB-468 cells, 12 h treatment at 250 nM, then washout (FIG. 7E-7F)): rebound of pPRAS40
Phosphorylated PRAS40 signal (phosphorylated PRAS40 [2]): reduction of phosphorylated proline-rich AKT substrate of 40 kDa (PRAS40) signal
Phosphorylated PRAS40 signal (phosphorylated PRAS40 [3]): reduction of phosphorylated PRAS40 signal
GR50 (ZR-75-1 cells): comparable GR50 value

Nc1cccc2c1CN(C1CCC(=O)NC1=O)C2=O (centres unmarked) [lenalidomide]
Anti-proliferative effects [4]: did not have strong anti-proliferative effects
